Literature values, collected in US20140323416A1, “5-METHYLDIHYDROMORPHONE COMPOUNDS FOR TREATMENT OF PAIN” (priority 2013, published 2014).

CN1CC[C@]23c4c5ccc(O)c4O[C@@]2(C)C(=O)CC[C@H]3[C@H]1C5 [Metopon, metopon]
bioavailability (in vivo): low bioavailability | emetic action (in vivo): nearly devoid of emetic action | analgesic effectiveness (relative to morphine): at least double to that of morphine | duration of action (relative to morphine): about equal to that of morphine | physical dependence (relative to morphine): built up more slowly than with morphine | potency (relative to morphine): reduced potency relative to morphine | tolerance (relative to morphine): develop more slowly and to disappear more quickly | respiratory depression (therapeutic analgesic doses): little or no respiratory depression | mental dullness (therapeutic analgesic doses, relative to morphine): much less mental dullness than morphine
